# Reference: PubChem BioAssay AID1963960 (Molecular Pharmacology Branch, DTP, NCI, 2024)
# pIC50: −log10 of the molar value.
# Tested on: MDA-MB-468 spheroids with HUVEC/MSC, viability
# Assay: Anticancer human tumor MDA-MB-468 cell line growth inhibition [PI3K];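 note: spheroids exposed to agents for seven days before readout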;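 for viability, T/C: 100% = DMSO vehicle control viability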
# Conditions: for pIC50: curve of first compound; for viability, T/C: stronger effect = lower value
# Procedure, shortened: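 Combination activity was assessed by viability in multicellular tumor spheroids carrying HUVEC and MSC components. Agents were tested with PI3K inhibitors from a Cmax-based top dose (or 10 microM) downward in half-log increments.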
# [1] = second compound 0.00316 µM, first compound 0.0316 µM
# [2] = second compound 0.00316 µM, first compound 0.1 µM
# [3] = second compound 0.00316 µM, first compound 0.316 µM
# [4] = second compound 0.00316 µM, first compound 1 µM
# [5] = second compound 0.00316 µM, first compound 3.16 µM
# [6] = second compound 0.00316 µM, first compound 10 µM
# [7] = second compound 0.01 µM, first compound 0.0316 µM
# [8] = second compound 0.01 µM, first compound 0.1 µM
# [9] = second compound 0.01 µM, first compound 0.316 µM
# [10] = second compound 0.01 µM, first compound 1 µM
# [11] = second compound 0.01 µM, first compound 3.16 µM
# [12] = second compound 0.01 µM, first compound 10 µM
# [13] = second compound 0.0316 µM, first compound 0.0316 µM
# [14] = second compound 0.0316 µM, first compound 0.1 µM
# [15] = second compound 0.0316 µM, first compound 0.316 µM
# [16] = second compound 0.0316 µM, first compound 1 µM
# [17] = second compound 0.0316 µM, first compound 3.16 µM
# [18] = second compound 0.0316 µM, first compound 10 µM
# [19] = second compound 0.1 µM, first compound 0.0316 µM
# [20] = second compound 0.1 µM, first compound 0.1 µM
# [21] = second compound 0.1 µM, first compound 0.316 µM
# [22] = second compound 0.1 µM, first compound 1 µM
# [23] = second compound 0.1 µM, first compound 3.16 µM
# [24] = second compound 0.1 µM, first compound 10 µM
# [25] = second compound 0.316 µM, first compound 0.0316 µM
# [26] = second compound 0.316 µM, first compound 0.1 µM
# [27] = second compound 0.316 µM, first compound 0.316 µM
# [28] = second compound 0.316 µM, first compound 1 µM
# [29] = second compound 0.316 µM, first compound 3.16 µM
# [30] = second compound 0.316 µM, first compound 10 µM
# [31] = second compound 1 µM, first compound 0.0316 µM
# [32] = second compound 1 µM, first compound 0.1 µM
# [33] = second compound 1 µM, first compound 0.316 µM
# [34] = second compound 1 µM, first compound 1 µM
# [35] = second compound 1 µM, first compound 3.16 µM
# [36] = second compound 1 µM, first compound 10 µM
smiles,measurement,setting,value
CC(C)NCC(C(=O)N1CCN(c2ncnc3c2C(C)CC3O)CC1)c1ccc(Cl)cc1 (stereo not drawn) + CC(Nc1ccc2c(c1)OCCn1cc(N3C(=O)OCC3C(F)F)nc1-2)C(N)=O,pIC50,second compound 0.00316 µM,5.89
same,pIC50,second compound 0.01 µM,6.12
same,pIC50,second compound 0.0316 µM,6.13
same,pIC50,second compound 0.1 µM,6.24
same,pIC50,second compound 0.316 µM,6.17
same,pIC50,second compound 1 µM,6.51
same,"viability, T/C",[1],90.2%
same,"viability, T/C",[2],91.3%
same,"viability, T/C",[3],72.5%
same,"viability, T/C",[4],60.1%
same,"viability, T/C",[5],27.5%
same,"viability, T/C",[6],25.5%
same,"viability, T/C",[7],113%
same,"viability, T/C",[8],88%
same,"viability, T/C",[9],67.7%
same,"viability, T/C",[10],45.8%
same,"viability, T/C",[11],27.8%
same,"viability, T/C",[12],23.7%
same,"viability, T/C",[13],88.1%
same,"viability, T/C",[14],85.5%
same,"viability, T/C",[15],65.6%
same,"viability, T/C",[16],45.1%
same,"viability, T/C",[17],29.5%
same,"viability, T/C",[18],24.4%
same,"viability, T/C",[19],104%
same,"viability, T/C",[20],83.6%
same,"viability, T/C",[21],57.2%
same,"viability, T/C",[22],45.1%
same,"viability, T/C",[23],24.3%
same,"viability, T/C",[24],21.4%
same,"viability, T/C",[25],89.8%
same,"viability, T/C",[26],81.3%
same,"viability, T/C",[27],65.7%
same,"viability, T/C",[28],42.5%
same,"viability, T/C",[29],26.4%
same,"viability, T/C",[30],22%
same,"viability, T/C",[31],82.5%
same,"viability, T/C",[32],65.3%
same,"viability, T/C",[33],50.1%
same,"viability, T/C",[34],37%
same,"viability, T/C",[35],26.2%
same,"viability, T/C",[36],21.2%
CCN1CCN(Cc2ccc(Nc3ncc(F)c(-c4cc(F)c5nc(C)n(C(C)C)c5c4)n3)nc2)CC1 + CC(Nc1ccc2c(c1)OCCn1cc(N3C(=O)OCC3C(F)F)nc1-2)C(N)=O,pIC50,second compound 0.00316 µM,< 6.00
same,pIC50,second compound 0.01 µM,< 6.00
same,pIC50,second compound 0.0316 µM,< 6.00
same,pIC50,second compound 0.1 µM,< 6.00
same,pIC50,second compound 0.316 µM,6.07
same,pIC50,second compound 1 µM,< 6.00
same,"viability, T/C","second compound 0.00316 µM, first compound 0.00316 µM",94%
same,"viability, T/C","second compound 0.00316 µM, first compound 0.01 µM",98.2%
same,"viability, T/C",[1],91.5%
same,"viability, T/C",[2],103%
same,"viability, T/C",[3],98.9%
same,"viability, T/C",[4],70.1%
same,"viability, T/C","second compound 0.01 µM, first compound 0.00316 µM",101%
same,"viability, T/C","second compound 0.01 µM, first compound 0.01 µM",117%
same,"viability, T/C",[7],83.4%
same,"viability, T/C",[8],100%
same,"viability, T/C",[9],94.5%
same,"viability, T/C",[10],70.5%
same,"viability, T/C","second compound 0.0316 µM, first compound 0.00316 µM",103%
same,"viability, T/C","second compound 0.0316 µM, first compound 0.01 µM",108%
same,"viability, T/C",[13],99.2%
same,"viability, T/C",[14],85.5%
same,"viability, T/C",[15],104%
same,"viability, T/C",[16],59.2%
same,"viability, T/C","second compound 0.1 µM, first compound 0.00316 µM",106%
same,"viability, T/C","second compound 0.1 µM, first compound 0.01 µM",95.5%
same,"viability, T/C",[19],99.2%
same,"viability, T/C",[20],105%
same,"viability, T/C",[21],89.4%
same,"viability, T/C",[22],54.3%
same,"viability, T/C","second compound 0.316 µM, first compound 0.00316 µM",106%
same,"viability, T/C","second compound 0.316 µM, first compound 0.01 µM",92.7%
same,"viability, T/C",[25],79.9%
same,"viability, T/C",[26],93.3%
same,"viability, T/C",[27],84.6%
same,"viability, T/C",[28],44.2%
same,"viability, T/C","second compound 1 µM, first compound 0.00316 µM",108%
same,"viability, T/C","second compound 1 µM, first compound 0.01 µM",81.7%
same,"viability, T/C",[31],88.6%
same,"viability, T/C",[32],88.3%
same,"viability, T/C",[33],88.3%
same,"viability, T/C",[34],51.8%
Cn1ncc(Cl)c1-c1cc(C(=O)NC(CN)Cc2cccc(F)c2)sc1Cl (stereo not drawn) + CC(Nc1ccc2c(c1)OCCn1cc(N3C(=O)OCC3C(F)F)nc1-2)C(N)=O,pIC50,second compound 0.00316 µM,6.51
same,pIC50,second compound 0.01 µM,6.44
same,pIC50,second compound 0.0316 µM,6.55
same,pIC50,second compound 0.1 µM,6.64
same,pIC50,second compound 0.316 µM,6.80
same,pIC50,second compound 1 µM,6.88
same,"viability, T/C",[1],89.7%
same,"viability, T/C",[2],72.2%
same,"viability, T/C",[3],42.9%
same,"viability, T/C",[4],35.6%
same,"viability, T/C",[5],22%
same,"viability, T/C",[6],7.53%
same,"viability, T/C",[7],83.7%
same,"viability, T/C",[8],74.4%
same,"viability, T/C",[9],44.8%
same,"viability, T/C",[10],36.4%
same,"viability, T/C",[11],25.6%
same,"viability, T/C",[12],5.85%
same,"viability, T/C",[13],91.2%
same,"viability, T/C",[14],71.8%
same,"viability, T/C",[15],39.9%
same,"viability, T/C",[16],33.7%
same,"viability, T/C",[17],22.1%
same,"viability, T/C",[18],3.85%
same,"viability, T/C",[19],78.7%
same,"viability, T/C",[20],63.6%
same,"viability, T/C",[21],39.8%
same,"viability, T/C",[22],33.6%
same,"viability, T/C",[23],20.8%
same,"viability, T/C",[24],4.34%
same,"viability, T/C",[25],75.8%
same,"viability, T/C",[26],59.6%
same,"viability, T/C",[27],33.8%
same,"viability, T/C",[28],27.5%
same,"viability, T/C",[29],19.2%
same,"viability, T/C",[30],4.28%
same,"viability, T/C",[31],76.2%
same,"viability, T/C",[32],53%
same,"viability, T/C",[33],37.2%
same,"viability, T/C",[34],21.8%
same,"viability, T/C",[35],18.9%
same,"viability, T/C",[36],3.04%
Cn1nccc1Nc1nccc(-c2ccn(C(CO)c3ccc(Cl)c(F)c3)c(=O)c2)n1 (stereo not drawn) + CC(Nc1ccc2c(c1)OCCn1cc(N3C(=O)OCC3C(F)F)nc1-2)C(N)=O,pIC50,second compound 0.00316 µM,< 5.00
same,pIC50,second compound 0.01 µM,< 5.00
same,pIC50,second compound 0.0316 µM,< 5.00
same,pIC50,second compound 0.1 µM,< 5.00
same,pIC50,second compound 0.316 µM,< 5.00
same,pIC50,second compound 1 µM,< 5.00
same,"viability, T/C",[1],85.3%
same,"viability, T/C",[2],96.8%
same,"viability, T/C",[3],87.2%
same,"viability, T/C",[4],90.4%
same,"viability, T/C",[5],96.1%
same,"viability, T/C",[6],87.9%
same,"viability, T/C",[7],97%
same,"viability, T/C",[8],89.1%
same,"viability, T/C",[9],87.8%
same,"viability, T/C",[10],94.9%
same,"viability, T/C",[11],101%
same,"viability, T/C",[12],82.6%
same,"viability, T/C",[13],95.3%
same,"viability, T/C",[14],86.6%
same,"viability, T/C",[15],88.6%
same,"viability, T/C",[16],80.1%
same,"viability, T/C",[17],108%
same,"viability, T/C",[18],77.8%
same,"viability, T/C",[19],88%
same,"viability, T/C",[20],89.2%
same,"viability, T/C",[21],77.7%
same,"viability, T/C",[22],81%
same,"viability, T/C",[23],87.5%
same,"viability, T/C",[24],73.1%
same,"viability, T/C",[25],90%
same,"viability, T/C",[26],82.5%
same,"viability, T/C",[27],89.6%
same,"viability, T/C",[28],87.6%
same,"viability, T/C",[29],82.7%
same,"viability, T/C",[30],60.7%
same,"viability, T/C",[31],85.5%
same,"viability, T/C",[32],74.3%
same,"viability, T/C",[33],74.7%
same,"viability, T/C",[34],74.8%
same,"viability, T/C",[35],81.2%
same,"viability, T/C",[36],55.2%
